From US10952436B2, “Microbiocidal quinoline (thio)carboxamide derivatives” (SYNGENTA PARTICIPATIONS AG, priority 2017, dated 2021)

Assays:
[1] = tested on: Botryotinia fuckeliana (Botrytis cinerea); test: Botryotinia fuckeliana (Botrytis cinerea)/Liquid Culture (Gray Mould); assay type: cell-based; details: 200 ppm, liquid culture, compared to untreated control, 3-4 days after application, read-out: control of Botryotinia fuckeliana
Fusarium culmorum [2] = test: microbe, parasite or virus in culture; assay type: cell-based; details: read-out: control of Fusarium culmorum
[3] = tested on: Monographella nivalis (Microdochium nivale); test: Monographella nivalis (Microdochium nivale)/Liquid Culture (Foot Rot Cereals); assay type: cell-based; details: 200 ppm, liquid culture, compared to untreated control, 4-5 days after application, read-out: control of Monographella nivalis
[4] = tested on: Glomerella lagenarium (Colletotrichum lagenarium); test: Glomerella lagenarium (Colletotrichum lagenarium)/Liquid Culture (Anthracnose); assay type: cell-based; details: Colletotrichum orbiculare; 200 ppm; liquid culture, compared to untreated control, 3-4 days after application; read-out: control of Glomerella lagenarium
[5] = tested on: Magnaporthe grisea (Pyricularia oryzae); test: microbe, parasite or virus in culture; assay type: cell-based; details: read-out: control of Magnaporthe grisea
Fusarium culmorum [6] = test: whole plant or invertebrate; assay type: in vivo; details: in Triticum aestivum, read-out: control of Fusarium culmorum

Row | SMILES | inhibition of growth at 200 ppm [1] | inhibition of growth at 200 ppm (Fusarium culmorum [2]) | inhibition of growth at 200 ppm [3] | inhibition of growth at 200 ppm [4] | inhibition of growth at 200 ppm [5] | pest or weed control at 200 ppm (Fusarium culmorum [6]) | melting point
1 | CC(C)CC(C)(Cc1cccc(F)c1)C(=O)Nc1cnc2c(F)cccc2c1 (stereo not drawn) [Compound E-7, 2-[(3-fluorophenyl)methyl]-N-(8-fluoro-3-quinolyl)-2,4-dimethyl-pentanamide] | ≥ 80% | ≥ 80% | ≥ 80% | ≥ 80% | ≥ 80% |  | 
2 | Cc1cccc2cc(NC(=O)[C@](C)(Cc3ccccc3)CC(F)(F)F)cnc12 [Compound F-18, (2R)-2-benzyl-4,4,4-trifluoro-2-methyl-N-(8-methyl-3-quinolyl)butanamide] | ≥ 80% | ≥ 80% | ≥ 80% | ≥ 80% | ≥ 80% |  | 
3 | CC(C=C(F)F)(Cc1ccccc1)C(=O)Nc1cnc2c(F)cccc2c1 (stereo not drawn) [Compound E-57, 2-benzyl-4,4-difluoro-N-(8-fluoro-3-quinolyl)-2-methyl-but-3-enamide] | ≥ 80% | ≥ 80% | ≥ 80% | ≥ 80% | ≥ 80% | ≥ 80% | 
4 | CON(C(=O)C(C)(Cc1ccccc1)CC(C)C)c1cnc2c(F)cccc2c1 (stereo not drawn) [Compound E-61, 2-benzyl-N-(8-fluoro-3-quinolyl)-N-methoxy-2,4-dimethyl-pentanamide] | ≥ 80% | ≥ 80% | ≥ 80% | ≥ 80% | ≥ 80% |  | 
5 | C[C@@](Cc1ccccc1)(CC(F)(F)F)C(=O)Nc1cnc2c(F)cccc2c1 (single isomer, unassigned) [Compound F-24] | ≥ 80% | ≥ 80% | ≥ 80% | ≥ 80% | ≥ 80% | ≥ 80% | 
6 | Cc1nc2c(F)cccc2cc1NC(=O)C(C)(Cc1ccccc1)CC(C)C (stereo not drawn) [Compound E-86, 2-benzyl-N-(8-fluoro-2-methyl-3-quinolyl)-2,4-dimethyl-pentanamide] | ≥ 80% | ≥ 80% | ≥ 80% | ≥ 80% |  | ≥ 80% | 
7 | CC(C)OC(C)(Cc1ccccc1)C(=O)Nc1cnc2c(F)cccc2c1 (stereo not drawn) [Compound E-40, N-(8-fluoro-3-quinolyl)-2-isopropoxy-2-methyl-3-phenyl-propanamide] | ≥ 80% | ≥ 80% | ≥ 80% | ≥ 80% | ≥ 80% | ≥ 80% | 
8 | Cc1c(NC(=O)C(Cc2ccccc2)CC2(C)CC2)cnc2c(F)cccc12 (stereo not drawn) |  |  |  |  |  |  | 144 to 146 °C
9 | O=C(Nc1cnc2ccccc2c1)C(Cc1ccccc1)CC(F)(F)F (stereo not drawn) [Compound E-79, 2-benzyl-4,4,4-trifluoro-N-(3-quinolyl)butanamide] | ≥ 80% | ≥ 80% |  | ≥ 80% | ≥ 80% |  | 
10 | Cc1nc2c(F)cccc2cc1NC(=O)C(Cc1ccccc1)CC1(C)CC1 (stereo not drawn) |  |  |  |  |  |  | 162 to 163 °C
11 | CC(C)C[C@](C)(Cc1ccccc1)C(=O)Nc1cnc2c(F)cccc2c1 [Compound F-19, (2R)-2-benzyl-N-(8-fluoro-3-quinolyl)-2,4-dimethyl-pentanamide] | ≥ 80% | ≥ 80% |  | ≥ 80% |  | ≥ 80% | 
12 | CC1(CC(Cc2ccccc2)C(=O)Nc2cnc3c(F)cccc3c2)CC1 (stereo not drawn) |  |  |  |  |  |  | 135 to 136 °C
13 | Cc1cccc2cc(NC(=O)[C@@](C)(Cc3ccccc3)CC(F)(F)F)cnc12 [Compound F-17, (2S)-2-benzyl-4,4,4-trifluoro-2-methyl-N-(8-methyl-3-quinolyl)butanamide] | ≥ 80% | ≥ 80% | ≥ 80% | ≥ 80% | ≥ 80% |  | 
14 | CC(Cc1ccccc1)(CC(F)F)C(=O)Nc1cnc2c(F)cccc2c1 (stereo not drawn) [Compound E-55, 2-benzyl-4,4-difluoro-N-(8-fluoro-3-quinolyl)-2-methyl-butanamide] | ≥ 80% | ≥ 80% | ≥ 80% | ≥ 80% | ≥ 80% | ≥ 80% | 
15 | C=C(C)CC(C)(Cc1ccccc1)C(=O)Nc1cnc2ccccc2c1 (stereo not drawn) [Compound E-64, 2-benzyl-2,4-dimethyl-N-(3-quinolyl)pent-4-enamide] | ≥ 80% | ≥ 80% | ≥ 80% | ≥ 80% | ≥ 80% | ≥ 80% | 
16 | C#CCC(Cc1ccccc1)C(=O)Nc1cnc2c(F)cccc2c1C (stereo not drawn) [Compound E-95] | ≥ 80% | ≥ 80% | ≥ 80% | ≥ 80% |  |  | 
17 | C=C(CC(C)(Cc1ccccc1)C(=O)Nc1cnc2c(F)cccc2c1)C(F)(F)F (stereo not drawn) [Compound E-23, 2-benzyl-N-(8-fluoro-3-quinolyl)-2-methyl-4-(trifluoromethyl)pent-4-enamide] | ≥ 80% | ≥ 80% | ≥ 80% | ≥ 80% | ≥ 80% |  | 
18 | C[C@@](Cc1ccccc1)(CC(F)(F)F)C(=O)Nc1cnc2c(F)c(F)ccc2c1 [Compound F-16, (2R)-2-benzyl-N-(7,8-difluoro-3-quinolyl)-4,4,4-trifluoro-2-methyl-butanamide] | ≥ 80% | ≥ 80% | ≥ 80% | ≥ 80% | ≥ 80% |  | 
19 | C=C(C(Cc1ccccc1)C(=O)Nc1cnc2c(F)cccc2c1)C(F)(F)F (stereo not drawn) [Compound E-24, 2-benzyl-N-(8-fluoro-3-quinolyl)-3-(trifluoromethyl)but-3-enamide] | ≥ 80% | ≥ 80% | ≥ 80% | ≥ 80% | ≥ 80% |  | 
20 | C#CCC(C)(Cc1ccccc1)C(=O)Nc1cnc2c(F)cccc2c1C (stereo not drawn) [Compound E-3, 2-benzyl-N-(8-fluoro-4-methyl-3-quinolyl)-2-methyl-pent-4-ynamide] | ≥ 80% | ≥ 80% | ≥ 80% | ≥ 80% |  |  | 
21 | COC(C)(Cc1ccccc1)C(=O)Nc1cc2cccc(F)c2nc1C (stereo not drawn) [Compound E-41, N-(8-fluoro-2-methyl-3-quinolyl)-2-methoxy-2-methyl-3-phenyl-propanamide] | ≥ 80% | ≥ 80% | ≥ 80% | ≥ 80% | ≥ 80% | ≥ 80% | 
22 | CCC(C)CC(C)(Cc1ccccc1)C(=O)Nc1cnc2c(F)cccc2c1 (stereo not drawn) [Compound E-36, 2-benzyl-N-(8-fluoro-3-quinolyl)-2,4-dimethyl-hexanamide] | ≥ 80% | ≥ 80% | ≥ 80% | ≥ 80% | ≥ 80% |  | 
23 | Cc1nc2c(F)cccc2cc1NC(=O)C(C)(Cc1ccccc1)OC(C)C (stereo not drawn) [Compound E-39, N-(8-fluoro-2-methyl-3-quinolyl)-2-isopropoxy-2-methyl-3-phenyl-propanamide] | ≥ 80% | ≥ 80% | ≥ 80% | ≥ 80% | ≥ 80% | ≥ 80% | 
24 | CC(CCC(F)F)(Cc1ccccc1)C(=O)Nc1cnc2c(F)cccc2c1 (stereo not drawn) [Compound E-34, 2-benzyl-5,5-difluoro-N-(8-fluoro-3-quinolyl)-2-methyl-pentanamide] | ≥ 80% | ≥ 80% |  | ≥ 80% | ≥ 80% |  | 
25 | C=C(C)CC(C)(Cc1ccccc1)C(=O)Nc1cnc2ccc(OC)cc2c1 (stereo not drawn) [Compound E-62, 2-benzyl-N-(6-methoxy-3-quinolyl)-2,4-dimethyl-pent-4-enamide] |  |  | ≥ 80% |  |  |  | 
26 | C/C=C(\C)CC(C)(Cc1ccccc1)C(=O)Nc1cnc2c(F)cccc2c1 (stereo not drawn) [Compound E-32, (E)-2-benzyl-N-(8-fluoro-3-quinolyl)-2,4-dimethyl-hex-4-enamide] | ≥ 80% | ≥ 80% | ≥ 80% | ≥ 80% | ≥ 80% | ≥ 80% | 
27 | CC(C)CC(Cc1ccccc1)C(=O)Nc1cnc2c(F)cccc2c1 (stereo not drawn) [Compound E-35, 2-benzyl-N-(8-fluoro-3-quinolyl)-4-methyl-pentanamide] | ≥ 80% | ≥ 80% |  | ≥ 80% | ≥ 80% | ≥ 80% | 
28 | C=C(Cl)CC(Cc1ccccc1)C(=O)Nc1cc2cccc(F)c2nc1C (stereo not drawn) [Compound E-4, 2-benzyl-4-chloro-N-(8-fluoro-2-methyl-3-quinolyl)pent-4-enamide] | ≥ 80% | ≥ 80% |  | ≥ 80% |  |  | 96 to 99 °C
